Where a name gives a salt, the structure may show the parent alone. Read-outs that look alike come from different tables or passages of the source. Marks after values point to notes of the source that are not given here.
How the values were obtained:
[1] = system: thrombus formation in rat AV-shunt; experiment: Antithrombotic effect in arteriovenous shunt (AV-shunt) model in rats; assay type: in vivo; details: oral 60 min before shunt, dose not given
Experimental: Antithrombotic effect of the oxazolidinone derivatives with cyclic amidoxime or cyclic amidrazone group represented by formula I of the present invention was evaluated using arteriovenous (AV) shunt in rats. Fasted, male Sprague-Dawley rats, weighed 200-240 g and aged approximately 7 weeks, were anesthetized by intraperitoneal injection of urethane (1.25 g/kg) or chloral hydrate. An arteriovenous (AV) shunt in anesthetized rats was performed as described previously, with minor modification [Journal of Thrombosis and Haemostasis (2004) 3, 514]. The left common carotid artery and the right jugular vein were cannulated with two 200-mm-long, saline filled tubes (PE-50, Becton Dickinson, USA). The polyethylene tubes were connected through 8-mm-long silicone tubing (L/S® 13, MasterFlex, USA) with a 50-mm-long silicone tube (L/S® 16, MasterFlex, USA) containing a […]. The compound or vehicle was given orally 60 min before shunt was opened for 15 min. The cotton thread was then withdrawn and weighed. ED50 values were calculated by linear regression analysis using Excel 2003 (Microsoft®.

[2] = system: Citrated human and rat plasma; experiment: Prothrombin time (PT), method using coagulometer; assay type: biochemical; details: concentration required to double the plasma clotting times, plasma species not given
Experimental: (§1) Effect of the oxazolidinone derivatives with cyclic amidoxime or cyclic amidrazone group represented by formula I of the present invention on blood coagulation was investigated by measuring prothrombin time (PT).
a) Method using coagulometer: Prothrombin time (PT) was measured with a Thrombotimer 4-channel coagulometer (Behnk Elektronik, Germany). Citrated human and rat plasma were used in the assays. For the PT measurement, 100 uL of freshly thawed plasma was mixed with 3 uL of serial dilution of test compound or DMSO. After 5 min incubation at 37° C., 200 uL of STA-Neoplastine (Diagnostica Stago, France) was added to start clot formation. Anticoagulant activity of the compounds was defined as the concentration required to double the plasma clotting times [2×PT (uM)]. Human plasma was obtained from Daejeon Red Cross Blood Center. […] Blood was collected into plastic tubes containing 1/10 volume of 3.8% sodium citrate. Plasma was obtained by immediate centrifugation at 2500 g for 10 min at 4° C., and stored at −70° C.

[3] = molecular target: T1, human FXa (Homo sapiens, UniProt P00742); experiment: Inhibitory activity against purified human FXa, chromogenic substrate S-2765; assay type: biochemical
T1 construct: purchased Enzyme Research Laboratories
Experimental: Human FXa was purchased from Enzyme Research Laboratories. 96-well microplate was purchased from Corning Life Sciences.
Inhibitory activity of the oxazolidinone derivatives with cyclic amidoxime or cyclic amidrazone group represented by formula I of the present invention against FXa was measured as follow.
The reaction was initiated by the addition of the substrate, and the absorbance was monitored continuously at 405 nm for 5 min using SpectraMax 190 (Molecular Devices, USA). The inhibitory constant (Ki) against human FXa was calculated according to the Cheng-Prusoff equation (Ki=IC50/1+[S]/Km), where [S] is the substrate concentration, and Km is the MichalisMenten constant. Km was determined from a Lineweaver-Burk plot. […] IC50 values were calculated using GraFit software version 5.0.12 (Erithacus Software Ltd., UK).

[4] = system: rat tail bleeding time; experiment: Bleeding time (BT) in rat tail bleeding model; assay type: in vivo; details: for Prolongation of bleeding time (X-fold): rat tail, po
Experimental: Fasted, male Sprague-Dawley rats, weighed 200-240 g and aged approximately 7 weeks, were anesthetized by intraperitoneal injection of pentobarbital-Na (60 mg/kg). The FXa inhibitors or vehicle was given orally 60 min before the tails of anesthetized rats were transected 2 mm from the tip and vertically immersed in saline at 37° C. The time until continuous blood flow ceased for >30 s was measured, with a maximum observation time of 30 min (longer bleeding time were assigned a value of 30 min).

[5] = system: citrated plasma; experiment: Prothrombin time (PT), method using spectramax; assay type: biochemical, human and rat; details: concentration required to double the plasma clotting times, absorbance 340 nm, plasma species not given
Experimental: as §1
b) Method using spectramax: The compound solution of serial dilution (5 uL) according to the present invention was mixed with citrated plasma (45 uL) followed by addition of STA-Neoplastine (Diagnostica Stago, France) after 5 min at 37° C. Absorbance at 340 nm was continuously monitored and the PT was determined as time (in seconds) when the absorbance at 340 nm reached 0.1. Anticoagulant activity of the compounds was defined as the concentration required to double the plasma clotting times [2×PT (uM)]. Human plasma was obtained from Daejeon Red Cross Blood Center. […] Blood was collected into plastic tubes containing 1/10 volume of 3.8% sodium citrate. Plasma was obtained by immediate centrifugation at 2500 g for 10 min at 4° C., and stored at −70° C.

[6] = physchem; assay type: physicochemical
Source text: Rivaroxaban represented by formula A was used as the comparison drug.

[7] = asterisked values (chloral hydrate anesthetic)
[8] = purified human FXa 2.6 nM, S-2765 300 uM, pH 7.8, 37° C., Cheng-Prusoff, Km 125 μM, read-out: Ki (nM), inhibition constant against human FXa
[9] = values without asterisk (urethane anesthetic)

T1 sequence (P00742 235-488 limits assumed): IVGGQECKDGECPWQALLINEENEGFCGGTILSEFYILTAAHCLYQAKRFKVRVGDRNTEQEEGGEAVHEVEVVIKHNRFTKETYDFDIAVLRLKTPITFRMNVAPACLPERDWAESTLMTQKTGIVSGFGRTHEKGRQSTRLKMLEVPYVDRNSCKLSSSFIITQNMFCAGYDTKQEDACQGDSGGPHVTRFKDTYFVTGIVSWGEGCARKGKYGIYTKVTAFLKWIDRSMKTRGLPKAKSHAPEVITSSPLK
T1 sequence (P00742 41-179 partner limits assumed): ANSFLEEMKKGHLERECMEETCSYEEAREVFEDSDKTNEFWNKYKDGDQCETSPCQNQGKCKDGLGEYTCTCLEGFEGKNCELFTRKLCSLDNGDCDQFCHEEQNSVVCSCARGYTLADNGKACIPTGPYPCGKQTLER

SMILES | Inhibition of thrombus formation (%) [1, 7] | 2xPT (uM) Coagulometer [2] [µM] | Ki [3, 8] [nM] | Inhibition of thrombus formation (%) [1, 9] [%] | Ki [3] [nM] | 2xPT (uM) Spectramax [5] [µM] | further results
CC1=NN(c2ccc(N3C[C@H](CNC(=O)c4ccc(Cl)s4)OC3=O)cc2)CCN1C [Compound 113] | 12* % | 0.62 | 29.3 |  |  |  | 
O=C(NC[C@H]1CN(c2ccc(N3CCNC=N3)cc2)C(=O)O1)c1ccc(Cl)s1 [Compound 109] | 73% | 0.44 |  | 78 | 4.37 | 0.21 | Prolongation of bleeding time (X-fold) ([4]; dose 2.5 mg/kg): 2.5 X-fold; Prolongation of bleeding time (X-fold) ([4]; dose 5 mg/kg): 4.0 X-fold; Prolongation of bleeding time (X-fold) ([4]; dose 10 mg/kg): 4.1 X-fold
O=C(NC[C@H]1CN(c2ccc(N3CCNC=N3)cc2)C(=O)O1)c1ccc(Cl)s1 [109 (MSA salt)] |  |  |  |  |  |  | Prolongation of bleeding time (X-fold) ([4]; dose 2.5 mg/kg): 2.1 X-fold; Prolongation of bleeding time (X-fold) ([4]; dose 5 mg/kg): 3.8 X-fold; Prolongation of bleeding time (X-fold) ([4]; dose 10 mg/kg): 5.7 X-fold; Aqueous Solubility [6]: >20 mM
O=C(NC[C@H]1CN(c2ccc(N3CCNC=N3)cc2)C(=O)O1)c1ccc(Cl)s1 [Compound 109-HCl] |  |  |  |  |  |  | Aqueous Solubility [6]: 6 mM
CN1CCON=C1c1ccc(N2C[C@H](CNC(=O)c3ccc(Cl)s3)OC2=O)cc1 [100 (MSA salt)] |  |  |  |  |  |  | Prolongation of bleeding time (X-fold) ([4]; dose 5 mg/kg): 1.1 X-fold; Prolongation of bleeding time (X-fold) ([4]; dose 10 mg/kg): 1.8 X-fold; Prolongation of bleeding time (X-fold) ([4]; dose 20 mg/kg): 5.1 X-fold; Aqueous Solubility [6]: >20 mM
CN1C=NCCN1c1ccc(N2C[C@H](CNC(=O)c3ccc(Cl)s3)OC2=O)cc1 [Compound 114] | 5* % | 0.50 | 2.86 |  |  |  | 
CCN1CCON=C1c1ccc(N2C[C@H](CNC(=O)c3ccc(Cl)s3)OC2=O)cc1 [Compound 102] |  | 1.76 |  | 61 | 8.91 | 0.77 | 
CCC1=NN(c2ccc(N3C[C@H](CNC(=O)c4ccc(Cl)s4)OC3=O)cc2)CCN1 [Compound 111] | 17* % | 0.40 | 18.9 |  |  |  | 
CN1CCON=C1c1ccc(N2C[C@H](CNC(=O)c3ccc(Cl)s3)OC2=O)cc1 [100 (HCl salt)] |  |  |  |  |  |  | Prolongation of bleeding time (X-fold) ([4]; dose 5 mg/kg): 1.2 X-fold; Prolongation of bleeding time (X-fold) ([4]; dose 10 mg/kg): 0.9 X-fold; solubility ([6]; water, read-out: Aqueous Solubility): 12 mM
CC1=NN(C)CCN1c1ccc(N2C[C@H](CNC(=O)c3ccc(Cl)s3)OC2=O)cc1 [Compound 121] |  | 2.90 | 95.6 | 51 |  | 0.54 | 
CC1=NOCCN1c1ccc(N2C[C@H](CNC(=O)c3ccc(Cl)s3)OC2=O)cc1 [Compound 116] |  | 3.51 | 23.2 | 74 |  | 0.71 | 
O=C(NC[C@H]1CN(c2ccc(N3CCON=C3C3CC3)cc2)C(=O)O1)c1ccc(Cl)s1 [Compound 117] |  |  | 101 |  |  | 2.2 | 
CN1C=NN(c2ccc(N3C[C@H](CNC(=O)c4ccc(Cl)s4)OC3=O)cc2)CC1 [Compound 112] | 44* % | 4.26 | 120 |  |  |  | 
CN1CCON=C1c1ccc(N2C[C@H](CNC(=O)c3ccc(Cl)s3)OC2=O)cc1 [Compound 100] | 58% | 0.69 ± 0.07 |  | 65 | 7.11 | 0.25 | prolongation of bleeding time compared to the vehicle control ([4]; rat tail bleeding model, 10 mg/kg): did not prolonged bleeding time; Prolongation of bleeding time (X-fold) ([4]; dose 5 mg/kg): 0.9 X-fold
CCN1OCCN=C1c1ccc(N2C[C@H](CNC(=O)c3ccc(Cl)s3)OC2=O)cc1 [Compound 105] |  | 0.16 | 3.62 | 80 |  | 0.04 | 
CC1=NN(c2ccc(N3C[C@H](CNC(=O)c4ccc(Cl)s4)OC3=O)cc2)CCN1 [Compound 110] | 45* % | 0.31 | 2.07 |  |  |  | 
CN1OCCN=C1c1ccc(N2C[C@H](CNC(=O)c3ccc(Cl)s3)OC2=O)cc1 [Compound 104] |  |  | 10 | 21 |  | 0.05 | 
O=C(NC[C@H]1CN(c2ccc(C3=NCCN4C(=O)CCN34)cc2)C(=O)O1)c1ccc(Cl)s1 [Compound 108] |  | 1.00 |  | 52 | 15.8 | 0.35 | 
O=CN1CCN(c2ccc(N3C[C@H](CNC(=O)c4ccc(Cl)s4)OC3=O)cc2)C=N1 [Compound 118] |  | 9.38 | 132 | 74 |  | 4.88 | 
O=C(NC[C@H]1CN(c2ccc(C3=NOCCN3)cc2)C(=O)O1)c1ccc(Cl)s1 [Compound 101] |  |  |  | 45 | 110 | 1.39 | 
O=C(NC[C@H]1CN(c2ccc(N3C=NOCC3)cc2)C(=O)O1)c1ccc(Cl)s1 [Compound 115] |  |  | 84 | 29 |  | 1.49 | 
O=C(NC[C@H]1CN(c2ccc(C3=NOCCN3C3CC3)cc2)C(=O)O1)c1ccc(Cl)s1 [Compound 103] |  |  |  | 24 | 53.3 | 1.10 | 
CCN1CCN(C)N=C1c1ccc(N2C[C@H](CNC(=O)c3ccc(Cl)s3)OC2=O)cc1 [Compound 106] |  |  |  |  | > 30 | 0.33 | 

— patent US8178525B2 (priority 2008, dated 2012)
